The record followed here is patent US6022880A, “Substituted pyridylamino indoles” (Hoechst Marion Roussel, Inc., priority 1997, dated 2000).

Counter-ions that a name gives are not always drawn.

Test [1] has as its system mice (scopolamine induced memory deficit). Nature of the test: Dark Avoidance Assay (reversal of scopolamine induced memory deficit). The format is in vivo, mouse. As to conditions: s.c. As to the method: Dark Avoidance Assay In this assay mice are tested for their ability to remember an unpleasant stimulus for a period of 24 hours. A mouse is placed in a chamber that contains a dark compartment; a strong incandescent light drives it to the dark compartment, where an electric shock is administered through metal plates on the floor. The animal is removed from the testing apparatus and tested again, 24 hours later, for the ability to remember the electric shock. If scopolamine, an anticholinergic agent that is known to cause memory impairment, is administered before an animal's initial exposure to the test chamber, the animal re-enters the dark compartment shortly after being placed in the test chamber 24 hours later. This effect of scopolamine is blocked by an active test compound, resulting in a greater interval before re-entry into the dark compartment. The results for an active compound are expressed as the percent of a group of animals in which the effect of scopolamine is blocked, as manifested by an increased interval between being placed in the test chamber and re-entering the dark compartment.

The next test addresses T1, MAO-B (Rattus norvegicus, UniProt P19643).
T1 sequence (P19643 1-520): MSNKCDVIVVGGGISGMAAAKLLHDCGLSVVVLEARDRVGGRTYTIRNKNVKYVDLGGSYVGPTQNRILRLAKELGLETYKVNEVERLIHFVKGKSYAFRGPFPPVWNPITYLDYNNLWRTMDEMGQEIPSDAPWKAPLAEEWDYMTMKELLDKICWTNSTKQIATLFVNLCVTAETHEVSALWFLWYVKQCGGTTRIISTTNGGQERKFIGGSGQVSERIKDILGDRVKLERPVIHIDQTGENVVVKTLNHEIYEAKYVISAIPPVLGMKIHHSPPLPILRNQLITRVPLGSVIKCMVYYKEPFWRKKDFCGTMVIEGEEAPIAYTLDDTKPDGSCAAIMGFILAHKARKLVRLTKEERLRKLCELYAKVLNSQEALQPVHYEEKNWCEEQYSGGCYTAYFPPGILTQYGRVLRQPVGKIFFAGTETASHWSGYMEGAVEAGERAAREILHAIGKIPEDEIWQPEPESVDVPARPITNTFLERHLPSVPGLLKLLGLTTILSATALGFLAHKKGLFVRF
Kind of test: biochemical. Set-up: species or system rat (male Wistar, whole brain minus cerebellum). As to conditions: substrate [14C]-PEA 200 μM; read-out: Inhibitory Concentration - IC50 MAO-B.

In a further test the target is T2, MAO-A (Rattus norvegicus, UniProt P21396).
T2 sequence (P21396 1-526): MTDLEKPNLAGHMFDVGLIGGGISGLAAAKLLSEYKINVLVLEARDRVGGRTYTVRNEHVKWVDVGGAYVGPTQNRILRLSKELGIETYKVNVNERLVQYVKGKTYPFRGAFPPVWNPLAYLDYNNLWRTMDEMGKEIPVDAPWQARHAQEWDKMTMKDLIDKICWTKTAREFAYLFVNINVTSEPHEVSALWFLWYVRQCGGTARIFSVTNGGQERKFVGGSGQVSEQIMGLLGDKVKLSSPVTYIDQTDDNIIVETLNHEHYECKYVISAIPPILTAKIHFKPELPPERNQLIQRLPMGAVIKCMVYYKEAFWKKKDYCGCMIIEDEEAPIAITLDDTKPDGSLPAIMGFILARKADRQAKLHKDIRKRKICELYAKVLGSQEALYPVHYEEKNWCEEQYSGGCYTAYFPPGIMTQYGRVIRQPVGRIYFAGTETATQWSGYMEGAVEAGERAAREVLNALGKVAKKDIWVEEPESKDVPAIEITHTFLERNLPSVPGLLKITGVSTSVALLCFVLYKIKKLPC
Nature of the test: biochemical. Set-up: species or system rat (male Wistar, whole brain minus cerebellum). As to conditions: substrate [3H]-5HT 200 μM; read-out: Inhibitory Concentration - IC50 MAO-A.

The subject of test [2] is serotonin uptake, rat whole brain synaptosomes. Kind of test: Inhibition of [3H]-Serotonin Uptake in Rat Whole Brain Synaptosomes. The format is biochemical, rat (male Wistar). The following applies: [3H]-5HT 50 nM, read-out: C: Inhibition of serotonin uptake, IC50. As to the method:
(C) Inhibition of [^3 H]-Serotonin Uptake in Rat Whole Brain Synaptosomes
(§1) A. Animals: Male CR Wistar Rats (100-125 g).
The final desired concentration of ^3 H-5HT in the assay is 50 nM. The dilution factor is 0.8.
5. For most assays, a 1 mM solution of the test compound is made up in suitable solvent and serially diluted such that the final concentration in the assay ranges from 2×10^-8 to 2×10^-5 M. Seven concentrations are used for each assay.
Male Wistar rats are decapitated and the brain rapidly removed. Whole brain minus cerebella is weighed and homogenized in 9 volumes of ice-cold 0.32 M sucrose using a Potter-Elvejhem homogenizer. Homogenization should be done with 4-5 up and down strokes at medium speeds to minimize synaptosome lysis. The homogenate is centrifuged at 1000 g for 10 min. at 0-4° C. The supernatant (S1) is decanted and is used for uptake experiments.
(§2) Tubes are incubated at 37° C. under a 95% O2 /5% CO2 atmosphere for 5 minutes. For each assay, 3 tubes are incubated with 20 μl of vehicle at 0° C. in an ice bath. After incubation all tubes are immediately centrifuged at 4000 g for 10 minutes. The supernatant fluid is aspirated and the pellets dissolved by adding 1 ml of solubilizer (Tritor. X-100+50% EtOH, 1:4 v/v). The tubes are vigorously vortexed, decanted into scintillation vials, and counted in 10 ml of Liquiscint scintillation counting cocktail. Active uptake is the difference between cpm at 37° C. and 0° C. The percent inhibition at each drug concentration is the mean of three determinations. IC50 values are derived from log-probit analysis.

Test [3] concerns norepinephrine uptake, rat whole brain or hypothalamic synaptosomes. Kind of test: Inhibition of [3H]-Norepinephrine Uptake in Rat Whole Brain or Hypothalamic Synaptosomes. The following applies: [3H]-NE 50 nM, read-out: E: Inhibition of norepinephrine uptake, IC50. In kind it is biochemical, rat (male Wistar). On the procedure:
(E) Inhibition of [^3 H]-Norepinephrine Uptake in Rat Whole Brain or Hypothalamic Synaptosomes
This assay is used as a biochemical screen for potential antidepressants which block norepinephrine uptake.
A. Animals: Male CR Wistar rats (100-125 g).
The final desired concentration of [^3 H]-NE in the assay is 50 nM. The dilution factor is 0.8.
5. For most assays, a 1 mM stock solution of the test compound is made up in a suitable solvent and serially diluted such that the final concentration in the assay ranges from 2×10^-8 to 2×10^-5 M. Seven concentrations are used for each assay.
Male Wistar rats are decapitated and the brain rapidly removed. Either whole brain minus cerebella or hypothalamus is weighed and homogenized in 9 volumes of ice-cold 0.32 M sucrose using a Potter-Elvejhem homogenizer. Homogenization should be done with 4-5 up and down strokes at medium speeds to minimize synaptosome lysis. The homogenate is centrifuged at 1000 g for 10 min. at 0-4° C. The supernatant (S1) is decanted and is used for uptake experiments.
as §2, with “(Triton” for “(Tritor.”

Test [4] has as its system dopamine uptake, rat striatal synaptosomes. Nature of the test: Inhibition of 3H-Dopamine Uptake in Rat Striatal Synaptosomes. In kind it is biochemical, rat (male Wistar). The following applies: 3H-DA 50 nM, read-out: D: Inhibition of dopamine uptake, IC50. On the procedure: (D) Inhibition of ^3 H-Dopamine Uptake in Rat Striatal Synaptosomes
This assay is used to show differential drug effects on dopamine uptake versus norepinephrine uptake and to identify therapeutic agents for diseases where the potentiation of dopaminergic activity may be helpful (e.g. Parkinson's Disease).
as §1
The final desired concentration of ^3 H-DA in the assay is 50 nM. The dilution factor is 0.9. Therefore, the KHBB is made up to contain 55.5 nM [^3 H]-5DA.
5. For most assays, a 1 mM stock solution of the test compound is made up in a suitable solvent and serially diluted such that the final concentration in the assay ranges from 2×10^-8 to 2×10^-5 M. Seven concentrations are used for each assay. Higher or lower concentrations may be used depending on the potency of the compound.
Male Wistar rats are decapitated and the brain rapidly removed. Corpora striata are rapidly removed, weighed and homogenized in 9 volumes of ice-cold 0.32 M sucrose using a Potter-Elvejhem homogenizer. Homogenization should be done with 4-5 up and down strokes at medium speeds to minimize synaptosome lysis. The homogenate is centrifuged at 1000 g for 10 min. at 0-4° C. The supernatant (S1) is decanted and is used for uptake experiments.
as §2, with “(Triton” for “(Tritor.”

Source text for MAO-A: (§3) Inhibition of Type A and Type B Monoamine Oxidase Activity in Rat Brain Synaptosomes
To determine the selective inhibition of the two forms of monoamine oxidase (MAO).
Although various methods for measuring MAO activity are available, the described method involves the extraction of the radiolabeled deaminated metabolites of [^3 H]-5HT or [^14 C]-β-phenethylamine. This procedure allows MAO-A and MAO-B activities to be measured either simultaneously or individually (3).
Serotonin creatinine SO4 (5HT) is obtained from Sigma Chemical Company. A 5 mM stock solution is made up in 0.01 N HCl. This is used to dilute the specific activity of the [^3 H]-5HT.
[^3 H]-5-Hydroxytryptamine creatinine SO4 (20-30 Ci/mmol) is obtained from New England Nuclear.
Add 12 μl of [^3 H]-5HT to 2 ml of the 5 mM 5HT solution. (Final amine concentration in the assay is 200 μM: see below.)
(§4) Equal amounts of MAO-A (5HT) and MAO-B (PEA) substrates are combined for simultaneously testing both MAO types, i.e. mixed stock solution of 2.5 mM 5HT and 2.5 mM PEA, 40 μl of this mixed solution gives a 200 μM final concentration of each amine in the assay. When testing only one MAO type, the individual 5 mM stock solutions must be diluted 1:1 with distilled water prior to adding 40 μl to the incubation mixture; i.e., same 200 μM final amine concentration.
(§5) Male Wistar rats weighing 150-250 grams were sacrificed and the brains rapidly removed. Whole brain minus cerebellum was homogenized in 30 volumes of ice-cold, phosphate-buffered 0.25 M sucrose, using a Potter-Elvejhem homogenizer. The homogenate was centrifuged at 1000 g for 10 minutes and the supernatant (S1) decanted and recentrifuged at 18,000 g for 20 minutes. The resulting pellet (p2) was resuspended in fresh 0.25 M sucrose and served as the tissue source for mitochondrial MAO.
(§6) Tubes are preincubated for 15 minutes at 37° C. and the assay is started by adding 40 μl of combined substrate ([^3 H]-5HT and [^14 C]-PEA) at 15 second intervals. The tubes are incubated for 30 minutes at 37° C. and the reaction stopped by the addition of 0.3 ml 2N HCl. Tissue blank values are determined by adding the acid before the radioactive substrate. The oxidative products of the reaction are extracted with ethyl acetate/toluene (1:1). 5 ml of this mixture is added to the tubes. The resultant mixture is vortexed for 15 seconds to extract the deaminated metabolites into the organic phase and the latter is allowed to separate from the aqueous phase. The tubes are placed in acetone/dry ice bath to freeze the aqueous layer. When this layer is frozen, the top organic layer is poured into a scintillation vial. 10 ml of Liquiscint is added and the samples are counted using window settings for ^14 C in one channel and ^3 H in the second channel. IC50 values are determined by log-probit analysis.
Procedure for MAO-B: as §3
a. β-phenethylamine (PEA) is obtained from Sigma Chemical Company. A 5 mM stock solution is made up in 0.01 N HCl. This is used to dilute the specific activity of the [^14 C]-PEA.
b. β-[ethyl-1-^14 C]-phenethylamine hydrochloride (40-50 mCi/mmol) is obtained from New England Nuclear.
Add 12 μl of [^14 C]-PEA to 2 ml of the 5 mM PEA solution. (Final amine concentration in the assay is 200 μM: see below.)
as §4, §5, §6

Turning to `Cn1cc(Nc2ccncc2)c2ccccc21.O=C(O)/C=C/C(=O)O` [1-Methyl-3-(4-pyridinylamino)indole fumarate], the “% of Animals with Scopolamine Induced Memory Deficit Reversal” value (“% of Animals” below) in test [1] (1 mg/kg of body weight) is recorded as 33%; in test [1] (3 mg/kg of body weight) it was 29%; in test [1] (10 mg/kg of body weight) it was 27%.
On to `Clc1ccc2c(Nc3ccncc3)csc2c1` [6-Chloro-3-(4-pyridinylamino)benzo[b]thiophene hydrochloride], for which the IC50 at MAO-B came out at 51 µM; on MAO-A, 10.5 µM.
As for `Nc1c2c(nc3ccccc13)CCCC2` [Tacrine, reference compound], in test [1] (0.63 mg/kg of body weight), the “% of Animals” value amounted to 13%.
For the compound `FC(F)(F)c1ccc2c(Nc3ccncc3)csc2c1` [3-(4-Pyridinylamino)-6-trifluoromethylbenzo[b]thiophene hydrochloride], the IC50 on MAO-B is 165 µM; at MAO-A it was 60 µM.
With `O=C(O)/C=C\C(=O)O.c1ccc2c(Nc3ccncc3)c[nH]c2c1` [3-(4-pyridinylamino)-1H-indole maleate, 3-(4-Pyridinylamino)-1H-indole maleate], in test [1] (10 mg/kg of body weight), the “% of Animals” value is 70%.
Take `CC[C@@H]1C(=O)OC[C@@H]1Cc1cncn1C` [Pilocarpine, reference compound]: in test [1] (5.0 mg/kg of body weight), the “% of Animals” value worked out at 13%.
Turning to `C=CCN(c1ccncc1)c1csc2cc(Cl)ccc12` [6-Chloro-3-[(2-propenyl)(4-pyridinyl)amino]benzo[b]thiophen hydrochloride], the IC50 in test [2] was determined as 0.12 µM; in test [3] it was 7 nM.
The like results for `Clc1ccc2c(N(CC3CC3)c3ccncc3)csc2c1` [6-Chloro-3-[(cyclopropylmethyl)(4-pyridyl)amino]benzo[b]thiophen hydrochloride] were, in that order, 0.12 µM and 12 nM.
For `c1ccc2c(Nc3ccncc3)csc2c1` [3-(4-Pyridinylamino)benzo[b]thiophene hydrochloride], the figures for the IC50 on MAO-B and on MAO-A were 18 µM and 5.3 µM, respectively.
For the compound `c1ccc2c(Nc3ccncc3)noc2c1` [3-[(4-pyridinyl)amino]-1,2-benzisoxazole], the values for the IC50 at MAO-B and at MAO-A were 3.9 µM and 0.64 µM, respectively.
For `Clc1ccc2c(Nc3ccncc3)noc2c1` [6-Chloro-3-[(4-pyridinyl)amino]-1,2-benzisoxazole maleate], in that order: 51 µM and 2.8 µM.
Regarding `COc1ccc2c(Nc3ccncc3)csc2c1` [6-Methoxy-3(4-pyridinylamino)benzo[b]thiophene hydrochloride], the IC50 turned out to be 17 µM on MAO-B and 3.2 µM at MAO-A.
With `O=C1CC2(CCCC2)CC(=O)N1CCCCN1CCN(c2ncccn2)CC1` [Buspirone], the IC50 in test [4] was greater than 20000 nM.
As to `Clc1ccc2c(Nc3ccncc3)c[nH]c2c1` [6-Chloro-3-(4-pyridinylamino)-1H-indole, 6-Chloro-3(4-pyridinylamino)indole], the “% of Animals” value came out at 27% in test [1] (1 mg/kg of body weight), 20% in test [1] (3 mg/kg of body weight) and 27% in test [1] (10 mg/kg of body weight).
In the case of `CN1CCN(C2=Nc3cc(Cl)ccc3Nc3ccccc32)CC1` [Clozapine, reference compound], the IC50 in test [4] and in test [3] was greater than 20000 nM in each case.
As for `CN(c1ccncc1)c1cc2ccccc2s1` [2-(Methyl-4-pyridinylamino)benzo[b]thiophene hydrochloride], the values for the IC50 in test [4], in test [2] and in test [3] were 510 nM, 1.15 µM and 78 nM, respectively.
On to `CN(C)CCC=C1c2ccccc2CCc2ccccc21` [Amitriptyline, reference compound], for which the IC50 in test [4] is greater than 20000 nM; in test [3], 7700 nM.
Take `CN(C)CCCN1c2ccccc2CCc2ccc(Cl)cc21` [Chloripramine, reference compound]: the IC50 in test [4] is greater than 20000 nM; in test [3], 18600 nM.
`CCCN(c1ccncc1)c1csc2cc(OC)ccc12` [6-Methoxy-3-(propyl-4-pyridinylamino)benzo[b]thiophene hydrochloride]: the IC50 at MAO-B stood at 205 µM; on MAO-A, 182 µM.
